pEC50, pKd: −log10 of the molar value. Each block holds one molecule with its values, some of them ahead of it.
How the values were obtained:
TLR4 [1] = molecular target: T1, TLR4 (Mus musculus, UniProt Q9JHF9+Q9QUK6); assay: TNF-α production in macrophages from mice with disabling germline mutations or knockouts of TLRs and downstream signaling proteins; format: cell-based; set-up: normalized TNF-α production in macrophages from mice; endogenous in cells; host or cells: macrophages from wild-type and mutant/knockout mice; details: for Genes on which induced TNF-α production depends / mechanism of signaling: mutant or knockout mouse macrophages, 5 ng/ml LPS or 50 mM neoseptin-3 (FIG. 1)
T1 sequence (Q9QUK6 26-835): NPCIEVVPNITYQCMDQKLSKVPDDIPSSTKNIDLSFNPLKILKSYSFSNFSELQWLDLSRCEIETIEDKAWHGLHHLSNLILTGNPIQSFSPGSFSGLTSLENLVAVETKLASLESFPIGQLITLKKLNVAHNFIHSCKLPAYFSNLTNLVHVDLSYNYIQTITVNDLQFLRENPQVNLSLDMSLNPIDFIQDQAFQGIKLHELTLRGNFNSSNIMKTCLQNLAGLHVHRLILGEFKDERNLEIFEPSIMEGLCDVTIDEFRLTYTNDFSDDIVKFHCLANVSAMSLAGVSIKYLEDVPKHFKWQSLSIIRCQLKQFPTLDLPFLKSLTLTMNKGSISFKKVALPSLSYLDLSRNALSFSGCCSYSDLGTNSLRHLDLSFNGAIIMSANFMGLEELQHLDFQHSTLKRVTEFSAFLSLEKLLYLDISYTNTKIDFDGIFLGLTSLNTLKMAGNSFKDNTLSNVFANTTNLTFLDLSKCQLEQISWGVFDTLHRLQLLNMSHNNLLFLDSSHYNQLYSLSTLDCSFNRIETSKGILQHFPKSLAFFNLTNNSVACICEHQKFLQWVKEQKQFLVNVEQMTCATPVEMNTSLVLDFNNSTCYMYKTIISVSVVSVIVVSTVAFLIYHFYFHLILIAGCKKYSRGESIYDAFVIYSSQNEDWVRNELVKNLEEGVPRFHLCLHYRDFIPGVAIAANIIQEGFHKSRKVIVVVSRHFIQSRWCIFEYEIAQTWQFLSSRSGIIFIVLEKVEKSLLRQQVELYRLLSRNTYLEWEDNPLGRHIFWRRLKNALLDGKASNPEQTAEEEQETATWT
T1 sequence (Q9JHF9 19-160): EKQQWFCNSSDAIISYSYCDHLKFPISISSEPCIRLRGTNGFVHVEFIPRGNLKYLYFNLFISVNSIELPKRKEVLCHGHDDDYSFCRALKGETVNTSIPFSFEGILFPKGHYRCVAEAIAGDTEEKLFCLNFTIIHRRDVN
Description: FIG. 1 in two parts as FIG. 1A and FIG. 1B are bar graphs that illustrate an assay of normalized TNF-α production in macrophages from mice containing disabling germline mutations or knockouts of genes encoding TLRs and downstream signaling proteins using 5 ng/ml of LPS or […] neoseptin-3.
(§1) See, (a) mutagenetix.utsouthwestern.edu.; (b) Arnold et al., (2012) ENU-induced phenovariance in mice: Inferences from 587 mutations. BMC Res. Notes. 5, 577-0500-5-577.

TLR4 [2] = molecular target: T1, TLR4; assay: Mouse peritoneal macrophage agonist assay (TNF-α ELISA); format: cell-based; set-up: used to inject mice intraperitoneally; endogenous in cells; host or cells: mouse peritoneal exudate cells (thioglycolate-elicited peritoneal macrophages); details: for TLR4 agonist efficacy: relative to neoseptin-1 or LPS; for pEC50: read-out: EC50 of dose-response curves, TLR4 agonist activity
Description: Mouse Peritoneal Macrophage Agonist Assay
Three to four days prior to PEC isolation, 3 mL syringes filled with Brewer's thioglycolate medium are used to inject mice intraperitoneally with 1.5-2 mL through a 25-gauge needle.
Immediately prior to isolation, mice are anaesthetized under isofluorane vapour (2-5% v/v, 2% O2).
5 mL syringes filled with sterile PBS are used to recover PECs by lavage through an 18-gauge needle. Once obtained, exudate is added to 5 mL of PEC recovery solution in a 15 mL conical tube, and stored on ice.
Tubes containing exudate are centrifuged for 3 minutes at 1200 rpm in a tabletop centrifuge, and supernatant is replaced with 1-4 mL of PEC medium. Pelleted cells are resuspended by pipeting, and a 10 μL aliquot is taken for cell enumeration.
The concentration of each cell sample is adjusted to 1×10^6 cells/mL using PEC medium, and 100 μL of each sample (1×10^5 cells) is added to a tissue culture-treated 96 well flat-bottomed plate, leaving two columns (11 & 12) unoccupied per plate. Plates are incubated at 37° C./5% CO2 in a humidified incubator for at least 1 hour to permit cells to adhere to the plate, during which time 125-03 solutions are prepared.
Following preincubation of PECs in the 96-well plate, non-adherent PECs are discarded along with residual medium, and 50 μM of compounds to be assayed are added to the cells. Plates are incubated for a further 4 hours.
Conditioned supernatant is collected into another 96 well plate and retained for TNF ELISA Assay. The cells are replaced with 100 μL/well of a 1:4 MTT solution:PEC medium solution (MTT 1 mg/mL final concentration). PEC plates are incubated at 37° C./5% CO2 overnight (about 18 hours). Supernatants are removed and 100 μL DMSO is added to each well. The plate is shaken for 10 minutes and read at 570 nm. This value is used to measure the cytotoxicity of the compounds.
Coat ELISA plate with 100 μL/well of capture antibody in Coating Buffer. Seal the plate and incubate overnight (about 18 hours) at 4° C.
Aspirate wells and wash 4× with 300 μL/well Wash Buffer. Blot plate on absorbent paper to remove residual buffer.
Dilute 1 part 5× concentrated Assay Diluent with 4 parts DI water. Block wells with 200 μL/well of 1× Assay Diluent. Incubate at room temperature for 1 hour or 4° C. overnight (about 18 hours).
Aspirate and wash at twice with Wash Buffer.
Using 1× Assay Diluent to perform 2-fold serial dilutions of the top standards to make the standard curve for a total of 8 points: 1000, 500, 250, 125, 62.5, 31.25, 15.625, 0 pg/ml. Add 100 μL/well of top standard concentration to the appropriate wells. Add 65 μL/well assay diluent plus 35 μL samples to the wells. Seal the plate and incubate at room temperature for 2 hours [or overnight (about 18 hours) at 4° C.]
Aspirate/wash 4 times with wash buffer.
Add 100 μL/well of detection antibody diluted in 1× Assay diluent. Seal the plate and incubate at room temperature for 1 hour.
Aspirate/wash. Repeat for a total of 4 washes.
Add 100 μL/well of Avidin-HRP diluted in 1× Assay diluent. Seal the plate and incubate at room temperature for 30 minutes.
Aspirate and wash. Repeat for a total of 5 washes.
Add 100 μL/well of Substrate Solution to each well. Incubate plate at room temperature for 2-3 minutes.
Add 50 μL/well of Stop Solution, and read plate at 450 nm.

MD-2 = molecular target: T2, MD-2 (UniProt Q9JHF9); assay: Isothermal titration calorimetry binding to MD-2
T2 sequence (Q9JHF9 1-160): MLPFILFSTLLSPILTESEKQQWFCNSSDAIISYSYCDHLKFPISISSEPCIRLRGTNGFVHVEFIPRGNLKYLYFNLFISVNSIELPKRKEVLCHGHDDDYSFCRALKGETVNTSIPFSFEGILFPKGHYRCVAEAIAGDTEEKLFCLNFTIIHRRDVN

[3] = tested on: type I interferon response; assay: Type I interferon response, release of INF-β / INF-α (FIG. 2); format: cell-based
C57BL/6J mice = assay: In vivo adjuvant effect, intramuscular co-injection with ovalbumin, serum OVA-specific IgG ELISA; set-up: species or system mouse
Description: FIG. 3, in two panels as FIG. 3A and FIG. 3B, are graphs that illustrate ELIZA results for the adjuvant effect of neoseptin-3. In FIG. 3A, adjuvants were mixed with ovalbumin (OVA, 100 μg) and injected intramuscularly into C57BL/6J mice at the indicated doses. Two immunizations were administered with a booster given at 7 days. In FIG. 3B, LPS (0.2 mg/kg), neoseptin-3 (250 mg/kg) or monophosphoryl lipid A from Salmonella minnesota R595 (MPLA) (0.2 mg/kg) were mixed with ovalbumin (OVA, 0, 1, 10, and 100 μg) Serum levels of OVA-specific IgG were measured (ELISA) on indicated days post-immunization.
FIG. 9 is a graph similar to FIG. 3 showing anti-olvalbumin titers at 14 days post immunization using adjuvants with ovalbumin (OVA, 100 μg) and injected intramuscularly into C57BL/6J mice. The adjuvants used were neoseptin-3, LPS, MPLA, and alum in the amounts shown.
It is remarkable that such a small molecule can display such exquisite structural selectivity for activating the immune response and to do so in a way that is so mechanistically specific and well-defined. {See, (a) Vogel Clin. Infect. Dis. 30 (Suppl 3):S266-S270 (2000); (b) Guy, Nat. Rev. Microbiol. 5:505-517 (2007); (c) Johnson, Curr. Top. Med. Chem. 8:64-79 (2008); and (d) Persing et al., Trends Microbiol. 10:S32-S37 (2002) and the citations therein for the procedures utilized.] […]

[4] = Overt toxicity on in vivo administration as adjuvant; details: at the maximum doses capable of administration
Description: Thus, a contemplated Compound of Formula I acts as an agonist at the TLR4 receptor in that it binds to the TLR4 receptor of a cell and triggers a response by that cell, thereby mimicking the action of LPS, without the toxic result from using LPS as an adjuvant.
It is remarkable that such a small molecule can display such exquisite structural selectivity for activating the immune response and to do so in a way that is so mechanistically specific and well-defined. {See, (a) Vogel Clin. Infect. Dis. 30 (Suppl 3):S266-S270 (2000); (b) Guy, Nat. Rev. Microbiol. 5:505-517 (2007); (c) Johnson, Curr. Top. Med. Chem. 8:64-79 (2008); and (d) Persing et al., Trends Microbiol. 10:S32-S37 (2002) and the citations therein for the procedures utilized.]

[5] = tested on: NF-κB, P38 MAPK, JNK, and Erk signaling pathways; assay: Activation of signaling pathways; format: cell-based
Description: as §1

- Genes on which induced TNF-α production depends / mechanism of signaling (TLR4 [1]): established to be TLR4
SMILES: N[C@@H](Cc1ccccc1)C(=O)Nc1ccc(C(=O)N[C@@H](CCc2ccccc2)C(=O)O)cc1OCCc1ccc(O)cc1 [neoseptin-1]

SMILES: N[C@@H](Cc1ccccc1)C(=O)Nc1ccc(C(=O)N[C@@H](CCc2ccccc2)C(=O)O)cc1CCc1ccc(O)cc1 [MM-1-88]
- TLR4 agonist efficacy (TLR4 [2]): significant enhancement in TLR4 agonist efficacy

- pEC50 (TLR4 [2]): 4.60 to 4.82
- TLR4 agonist efficacy (TLR4 [2]): nearly matching the efficacy of LPS
SMILES: CC(C)(C)OC(=O)[C@H](CCc1ccccc1)NC(=O)c1ccc(N)c(OCCc2ccc(O)cc2)c1 [neoseptin-4]

- Affinity for MD-2 relative to MPLA (MD-2; ITC direct binding): slightly better than that of MPLA itself
- pKd (MD-2; ITC, 20 μM neoseptin-3 with 350 μM MD-2): 4.93
- CD14 dependence of induced TNF-α production (TLR4 [1]; unlike LPS): independent of CD14
- pEC50 (TLR4 [2]): 4.60 to 4.82
- TLR4 agonist efficacy (TLR4 [2]): nearly matching the efficacy of LPS
- Effect of antagonist eritoran on TLR4 agonist activity (TLR4 [2]; with eritoran): blocked by the antagonist eritoran
SMILES: CC(C)(C)OC(=O)[C@H](CCc1ccccc1)NC(=O)c1ccc(N)c(CCc2ccc(O)cc2)c1 [neoseptin-3]
- Release of INF-β (type I interferon response) compared with LPS [3]: much more effectively stimulates a type I interferon response resulting in the release of INF-β
- In vivo adjuvant immune response compared with LPS (C57BL/6J mice; co-injected with ovalbumin, intramuscular (FIG. 3)): more sustained immune response of equal or greater efficacy than LPS
- In vivo adjuvant immune response compared with alum (C57BL/6J mice; ovalbumin 100 μg i.m., 14 days post immunization (FIG. 9)): much more robust immune response in vivo than does alum
- Overt toxicity [4]: does not display the overt toxicity
- Activation of signaling pathways [5]: activate the NF-κB, P38 MAPK, JNK, and Erk signaling pathways
- Genes on which induced TNF-α production depends / mechanism of signaling (TLR4 [1]): dependent on TLR4, MD-2, MyD88, Trif, TRAM, MAL, IRAK4, and IKBKG
